From PMC8619068, “Transformation of Tetracycline by Manganese Peroxidase from Phanerochaete chrysosporium” (Molecules, 2021)

Test system: T1, manganese peroxidase (MnP)
T1 construct: gene MNP1; native secreted enzyme purified from culture fluid (ultrafiltration, DEAE, Sephadex G-75); single band on SDS-PAGE
Assay: HPLC-UV ([…] nm) of residual tetracycline; non-linear Michaelis-Menten fit
Type: biochemical, Phanerodontia chrysosporium
Settings: MnSO4 0.1 mmol/L, H2O2 0.2 mmol/L, MnP 40 U/L, tartrate buffer 0.05 mol/L pH 4.5, 37 °C (general removal assay); oxidation mediated by Mn3+

Compound: CN(C)[C@@H]1C(=O)C(C(N)=O)=C(O)[C@@]2(O)C(=O)C3=C(O)c4c(O)cccc4[C@@](C)(O)[C@H]3C[C@@H]12 [TC, tetracycline]
- Km: 238.23 mg/L
